Patent US5278181A, “Soluble alkyl[5-[amino (phenyl)methyl]-1H-benzimidazol-2-yl] carbamate anthelmintics” (priority 1992, dated 1994)
“And” between values parts separate entries of the source, which are not always exact repeats. Equal values may be shown once.

Legend:
physchem = details: water
Acanthocheilonema viteae = assay: Antifilarial dual infection screen in jirds: adult A. viteae burden and microfilaremia; type: in vivo, in Mongolian jirds
Excerpt: (§1) Dual infections of the filarial worms Brugia pahangi and Acanthocheilonema viteae in jirds are used routinely for antifilarial screening [McCall, J. W., McTier, T. L., and Rowan, S. J., "In vivo models for evaluating potential antifilarial agents", Onchocerciasis/Filariasis (Proceedings of a Symposium sponsored by the World Health Organization), Kalamazoo, Mich., Apr. 8-10, 23-24 (1986)].
For this dual infection screen, male Mongolian jirds weighing 50-60 g are infected SC with 10 (5 male and 5 female) adult A. viteae, transplanted under sodium pentobarbital anesthesia (48 mg/kg) from donor hamsters infected SC 8 weeks earlier. Two weeks later, 20 (10 male and 10 female) adult B. pahangi, taken from donor jirds infected IP 8 weeks earlier, are transplanted into the peritoneal cavity of each jird under sodium pentobarbital anesthesia. After an additional week, when the jirds have acceptable levels of microfilaremia, they are randomly allocated to treatment groups of 3 animals each and a nontreated group of 4-6 animals. Microfilaremia is determined on days 0 (just prior to the first dose), 4 and 56 post-treatment. Unless indicated otherwise, compounds are suspended in hydroxyethylcellulose (0.5%) - Tween 80 (0.1%) and administered SC at 100 mg/kg/day for 5 consecutive days. All jirds are killed on day 56 post-treatment to determine the effects of drugs on adults of A. viteae and B. pahangi. Live worms are identified as to species, noted as to sex, and counted. The number of dead and/or encapsulated worms is also recorded. A reduction of ≥80% in microfilaremia or ≥50% in adult worm burden (either species) compared with pre-treatment microfilaremia or non-treated control worm burden, respectively, is considered to be significant. For secondary testing with this dual infection screen, groups of 7 animals each are used. For oral dosing, drugs are dissolved or suspended in hydroxyethylcellulose - Tween 80 and administered by gavage.

B. pahangi and A. viteae = assay: Antifilarial activity in jirds, dual infection, summary in words; type: in vivo; details: both oral and parenteral routes
Excerpt: as §1
For this dual infection screen, male Mongolian jirds weighing 50-60 g are infected SC with 10 (5 male and 5 female) adult A. viteae, transplanted under sodium pentobarbital anesthesia (48 mg/kg) from donor hamsters infected SC 8 weeks earlier. Two weeks later, 20 (10 male and 10 female) adult B. pahangi, taken from donor jirds infected IP 8 weeks earlier, are transplanted into the peritoneal cavity of each jird under sodium pentobarbital anesthesia. After an additional week, when the jirds have acceptable levels of microfilaremia, they are randomly allocated to treatment groups of 3 animals each and a nontreated group of 4-6 animals. Microfilaremia is determined on days 0 (just prior to the first dose), 4 and 56 post-treatment. […] Live worms are identified as to species, noted as to sex, and counted. The number of dead and/or encapsulated worms is also recorded. […]

Brugia pahangi = assay: Antifilarial effect in beagle dogs infected with Brugia pahangi; type: in vivo; details: for Dogs cured/Treated / Percent reduction Macrofilariae / Percent reduction Microfilariae: PO
Excerpt: The infective larvae of B. pahangi were produced and collected as described by McCall [J. Georgia Entomol. Soc. 16:283-293, (1981)]. The dogs were given 100 L3 of B. pahangi by subcutaneous injection (SC) into the dorsum of each hind paw or 200 L3 in one hind paw (i.e., a total inoculum of 200 L3 per dog).
The dogs were randomly allocated to treatment groups containing 4 dogs. The dogs were divided by sex and ranked by declining baseline microfilarial counts (average count based on the 5 bleedings made before the day of treatment). Those dogs which were amicrofilaremic or had very few microfilariae were excluded from the trial. Of the remaining dogs, those with the highest baseline microfilaremias were assigned to seven-dog replicates. The sex of the dogs within three of the replicates was the same, while the fourth replicate contained dogs of both sexes. The dogs of a given sex with the highest levels of microfilaremia were placed in the same replicate. The next set of dogs of that sex with the next highest levels of microfilaremia was assigned to the next replicate, and so on until all of the replicates were filled. The dogs within each complete replicate were assigned to test groups using a table of random numbers [Ostle and Mensing, Statistics in Research, Third Edition, Iowa State University Press, Ames, Iowa, pp. 560-563, (1975)]. The test groups were likewise assigned to either control or treatment groups using the table of random numbers.
The first day of treatment, day 0, was approximately 144 days after infection. Drugs were administered orally as a 10% suspension in HEC-Tween 80 or in soft gelatin capsules. Drugs were administered intramuscularly or subcutaneously as a 10% suspension in peanut oil or in HEC-Tween 80. Groups of four dogs served in sham-treated controls in each experiment. All of the treatments were given by IM injection in the dorsal lumbar muscles.
All dogs were observed frequently during each day of treatment and daily throughout the remainder of the study for any signs of reactions. In addition, the hair was shaved at the injection sites to facilitate the observation of possible tissue irritation resulting from treatment.
Blood was collected from each dog on days 51, 43, 27, 19, and 5 before treatment to determine baseline microfilaremias and allocate the dogs to treatment groups. Blood was then collected from all dogs on the day before treatment on day -1, on days 7, 10, 14, 21, 28, 35, 42, 49, and 56 days after treatment. All bleedings were done at approximately the same time of day (11:00-12:00 E.S.T.). Two 20-μl blood films were prepared from each sample and stained with giemsa. Microfilarial counts were made from the 2 blood films.
The dogs were euthanized for necropsy either two or six months after the first day of treatment. Just prior to euthanasia, the dogs were given a subcutaneous injection (SC) of a two percent solution of Evans blue into the dorsum of both hind paws in order to help delineate the lymphatic vessels. This was followed at least 30 minutes later with a lethal dose of Fatal-Plus® (Vortech Pharmaceuticals, Dearborn, Mich.). A limited necropsy was performed on each dog with examination of the afferent and efferent lymphatics of both hindlimbs and the popliteal, inguinal, internal and external iliac, and lumbar lymph nodes. Any live or dead worms seen were removed. These vessels and lymph nodes were removed, teased, and soaked overnight in normal saline to allow any worms to migrate out of the tissues. The condition of the worms, their sex and number, and the location from which they were recovered were noted.
Effectiveness against the adult parasites was determined as follows: [formula] Effectiveness against microfilariae for a given day after treatment was determined as follows: [formula]
The adult B. pahangi counts and the microfilarial counts were compared using a one way analysis of variance (ANOVA). […]

[1] = 50(34 free base) mg/kg/day bid × 5, gelatin capsules, not significantly different from control
[2] = 100(78 free base) mg/kg/day bid × 5, gelatin capsules
[3] = 200(155 free base) mg/kg/day bid × 5, HEC-Tween 80
[4] = 200(155 free base) mg/kg/day bid × 5, gelatin capsules

solubility (physchem): > 50 mg/mL
SMILES: COC(=O)Nc1nc2cc(C(N)c3ccc(F)cc3)ccc2[nH]1.Cl.Cl (racemic) [Example 2, Methyl (±)-[5-[Amino(4Fluorophenyl)Methyl]-1H-Benzimidazol-2-yl]Carbamate Dihy drochloride Salt]
% Macrofilarial reduction, A. viteae (Acanthocheilonema viteae; 1.56 mg/kg/day × 5 days, SC, day 56): 48%
% Microfilarial reduction, A. viteae, Day 4 (Acanthocheilonema viteae; 3.13 mg/kg/day × 5 days, SC): 88%
% Microfilarial reduction, A. viteae, Day 56 (Acanthocheilonema viteae; 3.13 mg/kg/day × 5 days, SC): 100%
% Macrofilarial reduction, A. viteae (Acanthocheilonema viteae; 3.13 mg/kg/day × 5 days, SC, day 56, 3.13 mg/kg/day): 74% and 69%
% Microfilarial reduction, A. viteae, Day 4 (Acanthocheilonema viteae; 6.25 mg/kg/day × 5 days, SC): 83%
% Microfilarial reduction, A. viteae, Day 56 (Acanthocheilonema viteae; 6.25 mg/kg/day × 5 days, SC): 100%
% Macrofilarial reduction, A. viteae (Acanthocheilonema viteae; 6.25 mg/kg/day × 5 days, SC, day 56): 100%
% Macrofilarial reduction, A. viteae (Acanthocheilonema viteae; 12.5 mg/kg/day × 1 day, SC, day 56): 83%
% Microfilarial reduction, A. viteae, Day 4 (Acanthocheilonema viteae; 12.5 mg/kg/day × 5 days, SC): 80%
% Microfilarial reduction, A. viteae, Day 56 (Acanthocheilonema viteae; 12.5 mg/kg/day × 5 days, SC): 100%
% Macrofilarial reduction, A. viteae (Acanthocheilonema viteae; 12.5 mg/kg/day × 5 days, SC, day 56): 100%
% Macrofilarial reduction, A. viteae (Acanthocheilonema viteae; 25 mg/kg/day × 1 day, SC, day 56): 96%
% Macrofilarial reduction, A. viteae (Acanthocheilonema viteae; 25 mg/kg/day × 5 days, SC, day 56): 100%
% Macrofilarial reduction, A. viteae (Acanthocheilonema viteae; 75 mg/kg/day × 5 days, oral, day 56): 83%
% Microfilarial reduction, A. viteae, Day 4 (Acanthocheilonema viteae; 100 mg/kg/day × 5 days, oral): 50%
% Microfilarial reduction, A. viteae, Day 56 (Acanthocheilonema viteae; 100 mg/kg/day × 5 days, oral): 75%
% Macrofilarial reduction, A. viteae (Acanthocheilonema viteae; 100 mg/kg/day × 5 days, oral, day 56): 80%
antifilarial activity in jirds (B. pahangi and A. viteae): outstanding antifilarial activity
Dogs cured/Treated (Brugia pahangi; 50(34 free base) mg/kg/day bid × 5, gelatin capsules): 0/4
Percent reduction Macrofilariae (Brugia pahangi; [1]): 71%
Percent reduction Microfilariae (Brugia pahangi; [1]): 89%
Dogs cured/Treated (Brugia pahangi; [2]): 0/4
Percent reduction Microfilariae (Brugia pahangi; [2]): 86%
Percent reduction Macrofilariae (Brugia pahangi; 100(78 free base) mg/kg/day bid × 5, gelatin capsules, not significantly different from control): 23%
Percent reduction Macrofilariae (Brugia pahangi; 200(155 free base) mg/kg/day bid × 1, HEC-Tween 80): 97%
Dogs cured/Treated (Brugia pahangi; 200(155 free base) mg/kg/day bid × 1, HEC-Tween 80, necropsied 6 months): 1/3
Percent reduction Microfilariae (Brugia pahangi; 200(155 free base) mg/kg/day bid × 1, HEC-Tween 80, not significantly different from control): 77%
Percent reduction Macrofilariae (Brugia pahangi; 200(155 free base) mg/kg/day bid × 3, HEC-Tween 80): 90%
Dogs cured/Treated (Brugia pahangi; 200(155 free base) mg/kg/day bid × 3, HEC-Tween 80, necropsied 6 months): 0/3
Percent reduction Microfilariae (Brugia pahangi; 200(155 free base) mg/kg/day bid × 3, HEC-Tween 80, not significantly different from control): 71%
Percent reduction Macrofilariae (Brugia pahangi; [3]): 100%
Percent reduction Microfilariae (Brugia pahangi; [3]): 100%
Dogs cured/Treated (Brugia pahangi; 200(155 free base) mg/kg/day bid × 5, HEC-Tween 80, necropsied 6 months): 3/3
Percent reduction Macrofilariae (Brugia pahangi; [4]): 99%
Percent reduction Microfilariae (Brugia pahangi; [4]): 100%
Dogs cured/Treated (Brugia pahangi; 200(155 free base) mg/kg/day bid × 5, gelatin capsules, necropsied 6 months): 5/6
Percent reduction Macrofilariae (Brugia pahangi; 200(155 free base) mg/kg/day × 1, HEC-Tween 80): 79%
Dogs cured/Treated (Brugia pahangi; 200(155 free base) mg/kg/day × 1, HEC-Tween 80, necropsied 6 months): 1/3
Percent reduction Microfilariae (Brugia pahangi; 200(155 free base) mg/kg/day × 1, HEC-Tween 80, not significantly different from control): 74%
Percent reduction Macrofilariae (Brugia pahangi; 200(155 free base) mg/kg/day × 3, HEC-Tween 80): 97%
Dogs cured/Treated (Brugia pahangi; 200(155 free base) mg/kg/day × 3, HEC-Tween 80, necropsied 6 months): 1/3
Percent reduction Microfilariae (Brugia pahangi; 200(155 free base) mg/kg/day × 3, HEC-Tween 80, not significantly different from control): 78%
cure of B. pahangi infections (Brugia pahangi; oral, 200 mg/kg/day (155 base equivalent) for 1, 3 or 5 days): cured dogs of B. pahangi infections
